Experimental data as given in ChEMBL document CHEMBL2074076, “Reversal of P-glycoprotein-mediated multidrug resistance by Alisol B 23-acetate” (Biochem Pharmacol, 2004).

Key:
[1] = target: T1, ATP-dependent translocase ABCB1 (Homo sapiens, UniProt P08183); assay: TP_TRANSPORTER: drug resistance (vinblastine) in HepG2-DR cells; format: functional, cell-based
[2] = target: T1, ATP-dependent translocase ABCB1; assay: TP_TRANSPORTER: drug resistance (vinblastine) in K562-DR cells; format: functional, cell-based

T1 sequence (P08183 whole entry): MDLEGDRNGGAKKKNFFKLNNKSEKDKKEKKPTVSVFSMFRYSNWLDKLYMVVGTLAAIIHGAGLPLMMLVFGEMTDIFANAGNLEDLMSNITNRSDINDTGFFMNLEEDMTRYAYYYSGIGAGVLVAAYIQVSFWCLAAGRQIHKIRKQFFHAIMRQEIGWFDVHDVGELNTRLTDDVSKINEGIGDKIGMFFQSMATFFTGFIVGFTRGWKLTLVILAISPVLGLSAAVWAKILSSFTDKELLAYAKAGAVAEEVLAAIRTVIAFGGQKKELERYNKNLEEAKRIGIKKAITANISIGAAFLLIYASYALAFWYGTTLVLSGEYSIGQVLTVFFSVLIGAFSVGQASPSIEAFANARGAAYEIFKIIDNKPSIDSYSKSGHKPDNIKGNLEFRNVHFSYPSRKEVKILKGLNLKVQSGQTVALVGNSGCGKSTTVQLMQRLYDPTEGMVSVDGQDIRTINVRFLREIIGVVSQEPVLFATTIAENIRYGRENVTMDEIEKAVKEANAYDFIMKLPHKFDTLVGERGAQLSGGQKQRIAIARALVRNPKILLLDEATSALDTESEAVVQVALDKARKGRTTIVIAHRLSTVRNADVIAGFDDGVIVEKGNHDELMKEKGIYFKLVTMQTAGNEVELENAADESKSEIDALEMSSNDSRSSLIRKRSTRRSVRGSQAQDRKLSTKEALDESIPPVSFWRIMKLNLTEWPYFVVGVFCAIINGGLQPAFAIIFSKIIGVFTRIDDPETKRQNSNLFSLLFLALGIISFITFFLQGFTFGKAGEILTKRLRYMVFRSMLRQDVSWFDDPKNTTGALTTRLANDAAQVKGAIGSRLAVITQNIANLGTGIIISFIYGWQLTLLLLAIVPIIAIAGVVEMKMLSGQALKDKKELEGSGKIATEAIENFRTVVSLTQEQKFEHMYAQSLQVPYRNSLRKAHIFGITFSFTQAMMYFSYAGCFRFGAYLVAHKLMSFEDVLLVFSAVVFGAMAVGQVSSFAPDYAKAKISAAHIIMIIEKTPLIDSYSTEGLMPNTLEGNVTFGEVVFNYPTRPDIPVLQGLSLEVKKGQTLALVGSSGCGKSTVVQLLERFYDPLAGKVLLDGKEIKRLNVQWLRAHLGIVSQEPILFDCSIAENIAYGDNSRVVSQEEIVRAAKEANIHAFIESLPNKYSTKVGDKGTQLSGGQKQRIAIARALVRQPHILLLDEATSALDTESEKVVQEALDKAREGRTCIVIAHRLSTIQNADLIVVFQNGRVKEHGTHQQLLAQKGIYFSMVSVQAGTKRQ

- Activity [1]: inhibitor [+]
- Activity [2]: inhibitor [+]
Structure (SMILES): C[C@H](C[C@](O)(CC(=O)O)C1OC1(C)C)C1=C2C[C@H](O)[C@@H]3[C@H](CCC4C(C)(C)C(=O)CC[C@@]43C)[C@@]2(C)CC1 (some centres not stated)
